What all share (assay): growth of human tumour cells (NCI), 48 h
Assay [1] has as its system MCF7 breast.
Assay [2] has as its system SF-295 CNS.
Assay [3] concerns NCI-H226 lung.
Assay [4] deals with T-47D breast.
In assay [5] the test system is K-562 leukemia.
For assay [6], the system named is HCT-15 colon.
The subject of assay [7] is MALME-3M melanoma.
Assay [8] relates to UO-31 renal.
The subject of assay [9] is HCT-116 colon.
The subject of assay [10] is PC-3 prostate.
The test system of assay [11] is MOLT-4 leukemia.
Assay [12] deals with NCI-H23 lung.
In assay [13] the test system is SF-268 CNS.

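All cell lines were grown in 96-well plates and treated with compound for 48 hours. Definition used: TGI = concentration required for complete inhibition of growth.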 Where a SMILES comes first, the peptide text is derived from it. [ ]: non-standard residue; d: D form. The star is where a group is joined. Cbz = O=C(OCc1ccccc1)*; Aib = CC(C)(N)C(=O)O

For the molecule `CSc1c(C)n([O-])c2cc(Cl)c(Cl)cc2[n+]1=O`, the TGI in assay [1] was 45 µM; in assay [2], more than 100 µM; in assay [3] it was 27.1 µM; in assay [4], 50 µM; in [5] it was 11.1 µM; in assay [6], 49.6 µM. Moreover, the TGI turned out to be 33 µM in assay [7]; 30.4 µM in assay [8]; 32 µM in assay [9]; 38.9 µM in assay [10]; 5.43 µM in [11]; 31.8 µM in [12]. In [13], this molecule displayed a TGI of 36.6 µM.
For the molecule `CCOC(=O)CN1C(=O)C(=O)N(c2ccc(OC)c3ccccc23)C1=O`, the TGI in assay [1], in assay [2], in assay [3], in assay [4], in assay [5] and in assay [6] was more than 100 µM each time. The TGI in assay [7], in assay [8], in [9], in assay [10], in [11] and in [12] was more than 100 µM each time. Further, in [13], the TGI was more than 100 µM.
On to `CCCCOc1ccc(S(=O)(=O)/N=C(\NO)Nc2ccc(Cl)cc2)cc1`, for which the TGI in [1] was 28.8 µM; in assay [2] it was 30.8 µM; in assay [3] it was 43.4 µM; in [4], 26.2 µM; in [5], 41.2 µM; in assay [6], 30.4 µM. Also, the TGI came out at 32.7 µM in assay [7]; 24.6 µM in assay [8]; 30.6 µM in [9]; 29.7 µM in assay [10]; 31.8 µM in [11]; 29.4 µM in assay [12]. Besides, the TGI in [13] worked out at 33.3 µM.
As to `COc1ccc(/N=N/C(=NNC(=O)c2ccc(C)cc2)c2ccc(N(C)C)cc2)cc1`, the TGI in assay [1] is 56.1 µM; in [2] it was more than 100 µM; in [3], more than 100 µM; in assay [4], more than 33.8 µM; in [5] it was more than 100 µM; in assay [6], more than 100 µM. Further, the TGI in [7] was 94.6 µM; in assay [8], more than 100 µM; in assay [9], more than 100 µM; in assay [10], more than 100 µM; in assay [11], more than 72.5 µM; in assay [12], more than 100 µM. In assay [13], this molecule displayed a TGI of more than 100 µM.
For `O=C(Cn1c(=O)oc2ccc(C(=O)c3cccc(Cl)c3)cc21)c1ccccc1`, the TGI in assay [1], in [2], in assay [3], in assay [4], in assay [5] and in [6] was more than 100 µM each time. The TGI in [7], in assay [8], in [10], in assay [11], in assay [12] and in assay [13] was more than 100 µM each time.
As for `CC1=NN(c2nc(N)nc(-c3cc4ccccc4oc3=N)n2)C(C)(C)C1`, the TGI in [1] is more than 100 µM; in assay [2], 32.6 µM; in [3] it was 30.4 µM; in [4] it was 34.3 µM; in assay [5] it was 53.1 µM; in [6], 35.9 µM. For the same molecule, the TGI in assay [7] worked out at 32.2 µM; in [8], 37.4 µM; in [9] it was 35.5 µM; in [10], 33 µM; in [11], 34.6 µM; in [12] it was 29.7 µM. The TGI in assay [13] is 36.7 µM.
With `CN1C/C(=C\c2cccs2)C(=O)/C(=C/c2cccs2)C1`, the TGI is more than 100 µM in assay [1]; more than 100 µM in assay [2]; more than 100 µM in assay [3]; 92.6 µM in assay [4]; more than 100 µM in [5]; more than 100 µM in [6]. Besides, the TGI in [7] is more than 100 µM; in [8], 45 µM; in [9], 34.4 µM; in [10], more than 100 µM; in [11], 47.2 µM; in assay [12], more than 100 µM. The molecule further showed a TGI in assay [13] of more than 100 µM.
For `Nc1ccc(C(=O)O)cc1`, the TGI in assay [1] is more than 100 µM; in assay [2], more than 100 µM; in [3] it was more than 100 µM; in [4] it was more than 100 µM; in [5], more than 100 µM; in [6], 52 µM. Besides, the TGI in assay [7], in [8], in assay [9], in assay [10], in [11] and in assay [12] was more than 100 µM in each case. Besides, the TGI in [13] was more than 100 µM.
With `COC(=O)/C=C\C(C#N)(C#N)N=Cc1ccc(Br)cc1`, the TGI was 17.1 µM in assay [1]; 34.7 µM in assay [2]; 20.6 µM in assay [3]; 14 µM in assay [4]; more than 100 µM in assay [5]; 11.8 µM in [6]. In addition, the TGI is 12.4 µM in [7]; 15.8 µM in assay [8]; more than 60.5 µM in assay [9]; 32.4 µM in [10]; more than 22.4 µM in [11]; 49.5 µM in assay [12]. In assay [13], this molecule showed a TGI of 31.1 µM.
As for `O=C(NNc1nc(-c2ccccc2)cs1)Nc1ccccc1`, the TGI in assay [1] is 62.8 µM; in [2], 83.6 µM; in assay [3], 46.5 µM; in assay [4] it was 66.8 µM; in assay [5], more than 100 µM; in assay [6] it was 74.4 µM. Besides, the TGI in assay [7] was more than 100 µM; in [8], 75.2 µM; in assay [9], 58.5 µM; in assay [10], 39.1 µM; in assay [11], more than 100 µM; in assay [12], 41.2 µM. Besides, the TGI in assay [13] came to 80.9 µM.
Turning to `CC(C)=CCC[C@@H](C)C1=C(O)C(Nc2ccccc2)=C(C)C(=O)C1=O`, the TGI is more than 86 µM in assay [1]; 32.4 µM in [2]; more than 73.4 µM in [3]; 59.7 µM in assay [4]; more than 80.9 µM in assay [5]; more than 78.7 µM in [6]. Also, the TGI is more than 75 µM in assay [7]; 46.4 µM in assay [8]; more than 75.6 µM in assay [9]; more than 100 µM in assay [10]; more than 72.2 µM in assay [11]; 98.7 µM in assay [12]. Also, the TGI in assay [13] is more than 100 µM.
Consider `COC(=O)C(CNC(=O)/C=C/c1ccc(OC(C)=O)c(OC(C)=O)c1)NC(=O)/C=C/c1ccc(OC(C)=O)c(OC(C)=O)c1` (configuration not stated), for which the TGI in assay [1], in assay [2], in assay [3], in assay [4], in [5] and in [6] was more than 100 µM each time. The TGI in assay [7] is more than 100 µM; in [8] it was more than 100 µM; in [9] it was more than 100 µM; in assay [10] it was more than 100 µM; in assay [11] it was 81.5 µM; in [12], more than 100 µM. The TGI in assay [13] is more than 100 µM.
On to `CC(C)(NC(=O)C(C)(C)NC(=O)OCc1ccccc1)C(=O)O` (Cbz-[Aib]-[Aib]-OH), for which the TGI in assay [1], in assay [2], in assay [3], in [4], in [5] and in assay [6] was more than 100 µM in each case. Further, the TGI in assay [7], in assay [8], in assay [9], in assay [10], in assay [11] and in assay [12] was more than 100 µM throughout. In assay [13], this molecule came in with a TGI of more than 100 µM.
For `CC(C)(CO)CNc1cc(Cl)nc(N)n1`, the TGI in assay [1], in [2], in [3], in assay [4], in assay [5] and in assay [6] was more than 100 µM each time. Further, the TGI in assay [7], in assay [8], in [9], in [10], in assay [11] and in assay [12] was more than 100 µM throughout. Further, the TGI in [13] was more than 100 µM.
For the molecule `Nc1c(C(=O)O)nnc2cc(Cl)ccc12`, the TGI in [1], in assay [2], in assay [3], in assay [4], in assay [5] and in [6] was more than 100 µM in each case. In addition, the TGI in assay [7], in assay [8], in [9], in assay [10], in assay [11] and in assay [12] was more than 100 µM in each case. The same molecule returned a TGI in assay [13] of more than 100 µM.
In the case of `CCOC(=O)C1=C(C)N(Cc2ccccc2)C2(O)C(OC)CC(=O)C3C(=O)N(c4ccccc4)C(=O)C132` (configuration not stated), the TGI is 34.5 µM in [1]; 47.5 µM in assay [2]; 37.5 µM in [3]; 30.5 µM in assay [4]; more than 100 µM in assay [5]; more than 100 µM in assay [6]. Moreover, the TGI in [7] is 36.7 µM; in [8] it was 33 µM; in assay [9], more than 100 µM; in assay [10] it was 50.8 µM; in assay [11], 81.6 µM; in [12], more than 100 µM. This molecule had a TGI in assay [13] of more than 100 µM.
Consider `COc1ccc(C2NC(N)=C(C#N)C3=C2C(C)CCC3)cc1OC` (configuration not stated), for which the TGI in assay [1], in assay [2], in [3], in assay [4], in assay [5] and in assay [6] was more than 100 µM each time. The TGI in [7], in assay [8], in assay [9], in assay [10], in [11] and in [12] was more than 100 µM in each case. Besides, in assay [13], the TGI is more than 100 µM.
Take `O=C(CN1CCN(c2ccccn2)CC1)N1CCCn2c1nc1ccccc1c2=O`: the TGI in assay [1], in assay [2], in assay [3], in assay [4], in [5] and in assay [6] was more than 100 µM in each case. The TGI in assay [7], in [8], in assay [9], in assay [10], in assay [11] and in [12] was more than 100 µM each time. In assay [13], the TGI was more than 100 µM.
Take `CCC(C)N1CN(c2ccccc2)C2(CCN(CCCC3(c4ccc(F)cc4)OCCO3)CC2)C1=O` (configuration not stated): the TGI in assay [1] is 7.58 µM; in assay [2] it was 10.6 µM; in assay [3], 32.7 µM; in assay [4], 42.5 µM; in assay [5], 34.3 µM; in assay [6], 10.8 µM. Further, the TGI in assay [7] worked out at 9.5 µM; in assay [8], 10.7 µM; in assay [9], 24.9 µM; in assay [10], 11.4 µM; in [11], 19.5 µM; in assay [12], 18.1 µM. The molecule further registered a TGI in assay [13] of 48.5 µM.
As to `Cc1cc(OCc2nnc3n2N=C(c2cc(F)c(Cl)cc2Cl)/C(=C/c2ccc(-c4ccc(Cl)cc4)o2)S3)ccc1Cl`, the TGI in [1], in assay [2], in assay [3], in assay [4], in [5] and in assay [6] was more than 50 µM throughout. Moreover, the TGI in assay [7], in [8], in assay [9], in [10], in assay [11] and in assay [12] was more than 50 µM throughout. The TGI in assay [13] was more than 50 µM.
For `Cc1nccn1S(=O)(=O)c1ccc(Cl)cc1`, the TGI in assay [1], in assay [2], in assay [3], in assay [4], in assay [5] and in assay [6] was more than 100 µM each time. For the same molecule, the TGI in [7], in assay [8], in assay [9], in assay [10], in [11] and in assay [12] was more than 100 µM each time. In assay [13], this molecule returned a TGI of more than 100 µM.
